Results from PubChem BioAssay AID248 (DTP/NCI, 2004).
Where “and” joins values, the source holds several entries; their conditions need not be identical. Identical values can stand only once. Toxic doses and inconclusive results are not listed. No stated cut-off is given here; in the data, active means T/C of 150% or more; inactive means T/C below 125%.

System: L1210 leukemia ip in BDF1 mice, survival T/C
Assay: NCI In Vivo Anticancer Drug Screen. Data for tumor model L1210 Leukemia (intraperitoneal) in B6D2F1 (BDF1) mice
Conditions: endpoint: mean survival time, higher = longer survival
How it was run: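 Tumor cells were implanted, animals were treated, and survival was followed. The result divides the treated measurement by the vehicle-control measurement.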

[1] = dose: 100.0 mg/kg/injection, schedule: Q01DX009 (ip), vehicle: saline with Tween-80
[2] = dose: 200.0 mg/kg/injection, schedule: Q01DX009 (ip), vehicle: saline with Tween-80
[3] = dose: 400.0 mg/kg/injection, schedule: Q01DX009 (ip), vehicle: saline with Tween-80
[4] = dose: 100.0 mg/kg/injection, schedule: Q01DX001 (ip), vehicle: saline with Tween-80
[5] = dose: 200.0 mg/kg/injection, schedule: Q01DX001 (ip), vehicle: saline with Tween-80
[6] = dose: 400.0 mg/kg/injection, schedule: Q01DX001 (ip), vehicle: saline with Tween-80
[7] = dose: 50.0 mg/kg/injection, schedule: Q01DX009 (ip), vehicle: saline with Tween-80
[8] = dose: 100.0 mg/kg/injection, schedule: Q04DX003 (ip), vehicle: saline with Tween-80
[9] = dose: 200.0 mg/kg/injection, schedule: Q04DX003 (ip), vehicle: saline with Tween-80
[10] = dose: 100.0 mg/kg/injection, schedule: Q04DX003 (ip), vehicle: saline
[11] = dose: 200.0 mg/kg/injection, schedule: Q04DX003 (ip), vehicle: saline
[12] = dose: 400.0 mg/kg/injection, schedule: Q04DX003 (ip), vehicle: saline
[13] = dose: 100.0 mg/kg/injection, schedule: Q01DX009 (ip), vehicle: saline
[14] = dose: 200.0 mg/kg/injection, schedule: Q01DX009 (ip), vehicle: saline

Measured: T/C

CCCC1(CC)C(=O)N=C(N)NC1=O (stereo unspecified)
inactive: dose: 25.0 mg/kg/injection, schedule: Q01DX001 (ip), vehicle: Klucel (hydroxypropylcellulose) (HPC) 95 % of control | dose: 50.0 mg/kg/injection, schedule: Q01DX001 (ip), vehicle: Klucel (hydroxypropylcellulose) (HPC) 104 % of control

NC(=O)c1ccccc1NC(=O)Nc1ccccc1F
inactive: dose: 100.0 mg/kg/injection, schedule: Q01DX009 (ip), vehicle: Klucel (hydroxypropylcellulose) (HPC) 105 % of control | dose: 200.0 mg/kg/injection, schedule: Q01DX009 (ip), vehicle: Klucel (hydroxypropylcellulose) (HPC) 107 % of control | dose: 400.0 mg/kg/injection, schedule: Q01DX009 (ip), vehicle: Klucel (hydroxypropylcellulose) (HPC) 100 % of control

N#[N+]c1nc[nH]c1C(N)=O
inactive: dose: 0.4 mg/kg/injection, schedule: Q03HX008 (ip), vehicle: steriod suspending solution 92 % of control | dose: 0.6 mg/kg/injection, schedule: Q03HX008 (ip), vehicle: steriod suspending solution 96 % of control | dose: 0.9 mg/kg/injection, schedule: Q03HX008 (ip), vehicle: steriod suspending solution 97 % of control | dose: 1.3 mg/kg/injection, schedule: Q03HX008 (ip), vehicle: steriod suspending solution 89 % of control | dose: 1.8 mg/kg/injection, schedule: Q03HX008 (ip), vehicle: steriod suspending solution 92 % of control | dose: 2.6 mg/kg/injection, schedule: Q03HX008 (ip), vehicle: steriod suspending solution 97 % of control | dose: 3.75 mg/kg/injection, schedule: Q01DX001 (ip), vehicle: steriod suspending solution 93 % of control | dose: 3.8 mg/kg/injection, schedule: Q03HX008 (ip), vehicle: steriod suspending solution 95 % of control | dose: 6.25 mg/kg/injection, schedule: Q01DX001 (ip), vehicle: steriod suspending solution 96 % of control | dose: 12.5 mg/kg/injection, schedule: Q01DX001 (ip), vehicle: steriod suspending solution 99 % of control

COc1ccc(OC(=O)Nc2ccc(SC)cc2)cc1
inactive: [1] 104 % of control | dose: 100.0 mg/kg/injection, schedule: Q04DX003 (ip), vehicle: Klucel (hydroxypropylcellulose) (HPC) 96 % of control | [2] 90 % of control | dose: 200.0 mg/kg/injection, schedule: Q04DX003 (ip), vehicle: Klucel (hydroxypropylcellulose) (HPC) 96 % of control | [3] 98 % of control | dose: 400.0 mg/kg/injection, schedule: Q04DX003 (ip), vehicle: Klucel (hydroxypropylcellulose) (HPC) 102 % of control

COC(=O)c1ccc(N(C)CCC(C)=O)cc1
inactive: dose: 100.0 mg/kg/injection, schedule: Q01DX001 (ip), vehicle: other 97 % of control | dose: 200.0 mg/kg/injection, schedule: Q01DX001 (ip), vehicle: other 95 % of control | dose: 400.0 mg/kg/injection, schedule: Q01DX001 (ip), vehicle: other 106 % of control

C=CCC(CCCCCCCCCCCCC)C(=O)O (stereo unspecified)
inactive: [4] 96 % of control | [5] 105 % of control | [6] 101 % of control

CN(C)c1ccc(/C=C2\SC(=S)N(c3ccccc3)C2=O)cc1
inactive: [7] 96 % of control | [1] 103 % of control | [2] 100 % of control

Cc1ccc2c(c1C)-c1c(ccc(C)c1C)C(=O)C2=O
inactive: dose: 50.0 mg/kg/injection, schedule: Q04DX002 (ip), vehicle: Klucel (hydroxypropylcellulose) (HPC) 91 % of control | dose: 100.0 mg/kg/injection, schedule: Q04DX002 (ip), vehicle: Klucel (hydroxypropylcellulose) (HPC) 102 % of control and 113 % of control | dose: 200.0 mg/kg/injection, schedule: Q04DX002 (ip), vehicle: Klucel (hydroxypropylcellulose) (HPC) 94 % of control | dose: 400.0 mg/kg/injection, schedule: Q04DX002 (ip), vehicle: Klucel (hydroxypropylcellulose) (HPC) 94 % of control and 100 % of control

O=C(O)C1(NO)CCCC1
inactive: dose: 50.0 mg/kg/injection, schedule: Q01DX001 (ip), vehicle: saline 102 % of control | dose: 100.0 mg/kg/injection, schedule: Q01DX001 (ip), vehicle: saline 121 % of control | dose: 400.0 mg/kg/injection, schedule: Q01DX001 (ip), vehicle: saline 110 % of control

CCC(=O)c1ccc(N=Nc2c(N)nc(N)[nH]c2=O)cc1
inactive: dose: 100.0 mg/kg/injection, schedule: Q01DX001 (ip), vehicle: carboxymethylcellulose (CMC) 101 % of control | dose: 200.0 mg/kg/injection, schedule: Q01DX001 (ip), vehicle: carboxymethylcellulose (CMC) 108 % of control | dose: 400.0 mg/kg/injection, schedule: Q01DX001 (ip), vehicle: carboxymethylcellulose (CMC) 103 % of control

COc1cc(O)c2c(c1)Cc1cc(C)cc(O)c1C2=O
inactive: dose: 12.5 mg/kg/injection, schedule: Q04DX002 (ip), vehicle: Klucel (hydroxypropylcellulose) (HPC) 93 % of control | dose: 25.0 mg/kg/injection, schedule: Q04DX002 (ip), vehicle: Klucel (hydroxypropylcellulose) (HPC) 93 % of control

O=C(/C=C/c1ccccc1)NC(=S)Nc1ccc(CCO)cc1
inactive: [7] 97 % of control and 111 % of control | [4] 100 % of control | dose: 100.0 mg/kg/injection, schedule: Q04DX002 (ip), vehicle: saline with Tween-80 96 % of control and 97 % of control | [8] 102 % of control | [5] 88 % of control | dose: 200.0 mg/kg/injection, schedule: Q04DX002 (ip), vehicle: saline with Tween-80 96 % of control and 101 % of control | [9] 100 % of control | [6] 90 % of control | [3] 93 % of control and 95 % of control | dose: 400.0 mg/kg/injection, schedule: Q04DX002 (ip), vehicle: saline with Tween-80 104 % of control | dose: 400.0 mg/kg/injection, schedule: Q04DX003 (ip), vehicle: saline with Tween-80 87 % of control

Nc1ccc(CCO)cc1
inactive: [10] 105 % of control | [11] 96 % of control | [12] 96 % of control

CCOC(=O)c1cnc2c(OC)cccc2c1Cl
inactive: [13] 98 % of control | [10] 102 % of control | [14] 96 % of control | [11] 109 % of control | [12] 98 % of control

CC(C)N(CCCO)C(C)C
inactive: dose: 50.0 mg/kg/injection, schedule: Q01DX009 (ip), vehicle: saline 95 % of control | [13] 93 % of control | [8] 95 % of control | [14] 95 % of control | [9] 97 % of control
